ChEMBL document CHEMBL5212743, “Selectivity Literature for EUbOPEN Chemogenomics Library wave 3” (2023)

Experiments:
[1] = biological target: T1, Nucleosome-remodeling factor subunit BPTF (Homo sapiens, UniProt Q12830)
D(3) dopamine receptor = D(3) dopamine receptor (Homo sapiens, UniProt P35462); experiment: Selectivity interaction (NIBR principial panel (12 GPCRs, 3 nuclear receptors, 3 transporters, and 7 other enzymes)) EUB0000253b DRD3
[2] = biological target: T2, Bromodomain-containing protein 7 (Homo sapiens) (UniProt Q9NPI1); experiment: Selectivity interaction (Bromodomain panel (DSF assay)) EUB0000253b BRD7
T2 sequence (whole entry): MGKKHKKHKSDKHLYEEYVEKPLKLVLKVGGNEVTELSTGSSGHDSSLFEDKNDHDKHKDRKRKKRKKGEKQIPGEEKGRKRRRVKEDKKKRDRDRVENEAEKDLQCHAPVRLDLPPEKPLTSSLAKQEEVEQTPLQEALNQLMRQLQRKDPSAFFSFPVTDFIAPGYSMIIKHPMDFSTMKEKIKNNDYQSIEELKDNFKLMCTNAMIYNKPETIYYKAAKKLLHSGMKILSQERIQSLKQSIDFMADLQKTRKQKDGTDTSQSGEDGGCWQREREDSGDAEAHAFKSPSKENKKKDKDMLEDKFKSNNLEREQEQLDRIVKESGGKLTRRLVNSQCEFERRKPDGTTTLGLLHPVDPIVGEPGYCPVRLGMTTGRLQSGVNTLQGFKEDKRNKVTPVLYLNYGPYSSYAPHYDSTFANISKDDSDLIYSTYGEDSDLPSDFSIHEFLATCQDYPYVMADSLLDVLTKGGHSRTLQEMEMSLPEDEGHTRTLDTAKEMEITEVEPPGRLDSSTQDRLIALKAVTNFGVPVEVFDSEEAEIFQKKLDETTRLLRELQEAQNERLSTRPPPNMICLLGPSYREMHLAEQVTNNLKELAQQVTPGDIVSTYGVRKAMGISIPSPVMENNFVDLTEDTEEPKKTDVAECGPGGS

Adenosine receptor A3 = biological target: T3, Adenosine receptor A3 (Homo sapiens, UniProt P0DMS8); experiment: Selectivity interaction (NIBR principial panel (12 GPCRs, 3 nuclear receptors, 3 transporters, and 7 other enzymes)) EUB0000253b ADORA3
T3 sequence (P0DMS8 whole entry): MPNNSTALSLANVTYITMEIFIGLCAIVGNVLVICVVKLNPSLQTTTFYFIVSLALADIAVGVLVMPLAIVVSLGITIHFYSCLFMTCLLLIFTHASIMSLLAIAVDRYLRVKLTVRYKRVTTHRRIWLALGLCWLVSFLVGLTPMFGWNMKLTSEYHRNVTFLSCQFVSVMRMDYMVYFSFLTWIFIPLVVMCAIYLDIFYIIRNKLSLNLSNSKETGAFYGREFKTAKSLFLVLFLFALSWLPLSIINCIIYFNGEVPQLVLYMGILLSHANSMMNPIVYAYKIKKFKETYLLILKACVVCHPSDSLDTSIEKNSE

[3] = biological target: T1, Nucleosome-remodeling factor subunit BPTF; remark: listed apart in the source
[4] = biological target: T4, Histone acetyltransferase KAT2A (Homo sapiens, UniProt Q92830); experiment: Selectivity interaction (BROMOscan™ panel (DiscoverX)) EUB0000253b KAT2A
T4 sequence (Q92830 whole entry): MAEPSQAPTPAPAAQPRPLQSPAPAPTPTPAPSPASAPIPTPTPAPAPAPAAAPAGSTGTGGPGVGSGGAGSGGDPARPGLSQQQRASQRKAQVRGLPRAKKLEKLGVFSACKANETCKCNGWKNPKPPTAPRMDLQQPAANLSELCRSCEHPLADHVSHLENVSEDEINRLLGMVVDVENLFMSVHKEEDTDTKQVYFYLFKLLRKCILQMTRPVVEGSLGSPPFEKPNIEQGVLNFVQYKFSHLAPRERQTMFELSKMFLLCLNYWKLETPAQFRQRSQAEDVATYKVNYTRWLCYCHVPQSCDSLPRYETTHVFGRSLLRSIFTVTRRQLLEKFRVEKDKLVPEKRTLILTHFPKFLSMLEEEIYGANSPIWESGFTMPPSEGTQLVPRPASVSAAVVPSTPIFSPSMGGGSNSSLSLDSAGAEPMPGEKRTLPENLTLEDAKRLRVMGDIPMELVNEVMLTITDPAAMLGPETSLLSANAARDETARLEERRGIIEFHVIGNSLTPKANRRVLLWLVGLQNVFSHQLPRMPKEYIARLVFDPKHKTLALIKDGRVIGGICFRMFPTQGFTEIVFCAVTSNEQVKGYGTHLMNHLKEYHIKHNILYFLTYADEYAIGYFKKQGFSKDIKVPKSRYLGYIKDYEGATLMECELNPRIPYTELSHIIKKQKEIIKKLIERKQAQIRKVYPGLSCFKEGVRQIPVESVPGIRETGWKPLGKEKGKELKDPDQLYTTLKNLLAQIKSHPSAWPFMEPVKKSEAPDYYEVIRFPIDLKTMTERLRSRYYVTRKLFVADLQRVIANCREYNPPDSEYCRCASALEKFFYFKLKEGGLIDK

[5] = biological target: T5, Chromatin remodeling regulator CECR2 (Homo sapiens, UniProt Q9BXF3); experiment: Selectivity interaction (Bromodomain panel (DSF assay)) EUB0000253b CECR2
[6] = biological target: T5, Chromatin remodeling regulator CECR2; experiment: Selectivity interaction (BROMOscan™ panel (DiscoverX)) EUB0000253b CECR2
Target sequence in this assay (Q9BXF3 whole entry): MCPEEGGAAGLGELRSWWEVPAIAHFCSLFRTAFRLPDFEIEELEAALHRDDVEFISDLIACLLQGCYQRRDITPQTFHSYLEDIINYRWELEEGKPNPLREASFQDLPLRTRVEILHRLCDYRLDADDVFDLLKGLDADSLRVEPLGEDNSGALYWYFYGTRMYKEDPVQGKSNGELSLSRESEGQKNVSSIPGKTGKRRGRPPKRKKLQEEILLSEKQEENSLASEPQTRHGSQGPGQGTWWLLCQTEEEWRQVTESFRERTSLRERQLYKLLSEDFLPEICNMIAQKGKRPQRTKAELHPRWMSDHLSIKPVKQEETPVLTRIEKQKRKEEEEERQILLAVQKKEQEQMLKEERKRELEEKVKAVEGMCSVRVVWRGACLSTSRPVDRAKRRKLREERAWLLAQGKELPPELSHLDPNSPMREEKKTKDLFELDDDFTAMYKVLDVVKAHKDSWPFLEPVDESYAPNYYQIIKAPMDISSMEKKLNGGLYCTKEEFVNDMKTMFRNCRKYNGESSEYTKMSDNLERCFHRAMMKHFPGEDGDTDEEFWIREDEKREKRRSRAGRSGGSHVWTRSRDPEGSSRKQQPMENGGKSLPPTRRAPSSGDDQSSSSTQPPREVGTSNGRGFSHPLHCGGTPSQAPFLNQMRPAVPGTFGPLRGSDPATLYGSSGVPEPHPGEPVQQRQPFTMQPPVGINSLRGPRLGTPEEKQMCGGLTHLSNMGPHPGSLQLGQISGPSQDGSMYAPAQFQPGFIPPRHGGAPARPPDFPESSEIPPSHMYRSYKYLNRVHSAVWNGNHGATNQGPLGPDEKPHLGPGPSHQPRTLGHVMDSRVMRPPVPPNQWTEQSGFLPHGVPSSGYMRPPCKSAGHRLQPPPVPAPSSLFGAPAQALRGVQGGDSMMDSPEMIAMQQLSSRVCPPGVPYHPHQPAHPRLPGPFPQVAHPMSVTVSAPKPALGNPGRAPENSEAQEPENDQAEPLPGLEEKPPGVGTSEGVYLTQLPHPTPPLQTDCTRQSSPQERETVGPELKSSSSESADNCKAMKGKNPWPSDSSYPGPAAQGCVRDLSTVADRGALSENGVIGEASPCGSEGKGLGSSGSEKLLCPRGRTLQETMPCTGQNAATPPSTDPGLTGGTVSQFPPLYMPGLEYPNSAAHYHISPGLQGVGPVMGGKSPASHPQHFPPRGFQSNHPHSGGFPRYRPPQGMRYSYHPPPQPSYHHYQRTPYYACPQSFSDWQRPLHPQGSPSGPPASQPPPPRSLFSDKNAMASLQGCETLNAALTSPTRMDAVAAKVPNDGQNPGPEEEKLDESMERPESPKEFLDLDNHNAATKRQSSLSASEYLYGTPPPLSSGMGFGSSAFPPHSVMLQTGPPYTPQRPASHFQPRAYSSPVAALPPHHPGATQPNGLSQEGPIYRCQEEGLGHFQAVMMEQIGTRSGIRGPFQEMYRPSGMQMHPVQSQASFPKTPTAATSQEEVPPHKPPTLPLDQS

[7] = biological target: T6, Histone acetyltransferase KAT2B (Homo sapiens, UniProt Q92831); experiment: Selectivity interaction (NanoBRET assay (HEK293T cells)) EUB0000253b KAT2B
Target sequence in this assay (Q92831 whole entry): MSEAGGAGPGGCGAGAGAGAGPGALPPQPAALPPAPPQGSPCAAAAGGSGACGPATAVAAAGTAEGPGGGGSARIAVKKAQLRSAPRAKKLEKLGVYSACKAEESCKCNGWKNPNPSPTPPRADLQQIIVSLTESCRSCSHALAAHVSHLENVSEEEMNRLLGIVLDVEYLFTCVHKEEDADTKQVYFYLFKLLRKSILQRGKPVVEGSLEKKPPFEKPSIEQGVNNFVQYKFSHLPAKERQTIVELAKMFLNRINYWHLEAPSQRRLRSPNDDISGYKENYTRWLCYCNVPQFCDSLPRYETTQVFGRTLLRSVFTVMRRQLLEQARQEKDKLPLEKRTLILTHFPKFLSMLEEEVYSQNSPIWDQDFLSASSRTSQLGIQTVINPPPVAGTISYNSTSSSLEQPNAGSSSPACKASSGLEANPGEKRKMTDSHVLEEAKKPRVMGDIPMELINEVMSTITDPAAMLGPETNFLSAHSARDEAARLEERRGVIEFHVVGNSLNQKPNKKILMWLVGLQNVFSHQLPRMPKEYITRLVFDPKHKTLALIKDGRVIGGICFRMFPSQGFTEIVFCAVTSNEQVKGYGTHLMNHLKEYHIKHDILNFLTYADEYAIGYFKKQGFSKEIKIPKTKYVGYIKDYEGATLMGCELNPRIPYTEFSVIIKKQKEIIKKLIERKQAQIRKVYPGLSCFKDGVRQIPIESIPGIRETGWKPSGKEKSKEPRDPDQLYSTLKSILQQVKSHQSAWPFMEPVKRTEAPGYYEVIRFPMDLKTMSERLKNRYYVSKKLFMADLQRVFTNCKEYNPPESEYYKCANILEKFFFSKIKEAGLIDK

[8] = biological target: T5, Chromatin remodeling regulator CECR2; experiment: Selectivity interaction (NanoBRET assay (HEK293T cells)) EUB0000253b CECR2
Target sequence in this assay (Q9BXF3 whole entry): as the sequence (Q9BXF3 whole entry) above

[9] = biological target: T6, Histone acetyltransferase KAT2B; experiment: Selectivity interaction (Bromodomain panel (DSF assay)) EUB0000253b KAT2B
[10] = biological target: T4, Histone acetyltransferase KAT2A; experiment: Selectivity interaction (NanoBRET assay (HEK293T cells)) EUB0000253b KAT2A
Histamine H3 receptor = Histamine H3 receptor (Homo sapiens, UniProt Q9Y5N1); experiment: Selectivity interaction (NIBR principial panel (12 GPCRs, 3 nuclear receptors, 3 transporters, and 7 other enzymes)) EUB0000253b HRH3
[11] = biological target: T6, Histone acetyltransferase KAT2B; experiment: Selectivity interaction (BROMOscan™ panel (DiscoverX)) EUB0000253b KAT2B
Target sequence in this assay (Q92831 whole entry): as the sequence (Q92831 whole entry) above

[12] = biological target: 5-hydroxytryptamine receptor 7 (Homo sapiens, UniProt P34969); experiment: Selectivity interaction (GPCR panel (PDSP screen)) EUB0000747a HTR7
[13] = biological target: Microtubule-associated serine/threonine-protein kinase 1 (Homo sapiens) (UniProt Q9Y2H9); experiment: Selectivity interaction (KinomeScan (DiscoverX)) EUB0000747a MAST1; conditions: at 1 µM
[14] = biological target: Death-associated protein kinase 2 (Homo sapiens) (UniProt Q9UIK4); experiment: Selectivity interaction (KinomeScan (DiscoverX)) EUB0000747a DAPK2; conditions: at 1 µM
Sequence of Death-associated protein kinase 2 (Homo sapiens) (Q9UIK4 whole entry, looked up): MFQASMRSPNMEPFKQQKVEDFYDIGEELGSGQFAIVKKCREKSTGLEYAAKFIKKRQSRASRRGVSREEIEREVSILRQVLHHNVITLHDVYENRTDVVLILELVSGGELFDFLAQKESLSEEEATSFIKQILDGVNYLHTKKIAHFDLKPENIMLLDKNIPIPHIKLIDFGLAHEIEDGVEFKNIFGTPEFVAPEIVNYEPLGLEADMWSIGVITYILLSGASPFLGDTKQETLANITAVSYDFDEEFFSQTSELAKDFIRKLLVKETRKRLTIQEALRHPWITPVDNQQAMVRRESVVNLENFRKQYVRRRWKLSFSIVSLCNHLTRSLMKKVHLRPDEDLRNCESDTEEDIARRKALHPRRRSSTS

[15] = tested on: T7, Receptor-type tyrosine-protein kinase FLT3 (Homo sapiens), P36888 [D835Y]; experiment: Selectivity interaction (KinomeScan (DiscoverX)) EUB0000747a FLT3; conditions: at 1 µM
T7 sequence (whole entry): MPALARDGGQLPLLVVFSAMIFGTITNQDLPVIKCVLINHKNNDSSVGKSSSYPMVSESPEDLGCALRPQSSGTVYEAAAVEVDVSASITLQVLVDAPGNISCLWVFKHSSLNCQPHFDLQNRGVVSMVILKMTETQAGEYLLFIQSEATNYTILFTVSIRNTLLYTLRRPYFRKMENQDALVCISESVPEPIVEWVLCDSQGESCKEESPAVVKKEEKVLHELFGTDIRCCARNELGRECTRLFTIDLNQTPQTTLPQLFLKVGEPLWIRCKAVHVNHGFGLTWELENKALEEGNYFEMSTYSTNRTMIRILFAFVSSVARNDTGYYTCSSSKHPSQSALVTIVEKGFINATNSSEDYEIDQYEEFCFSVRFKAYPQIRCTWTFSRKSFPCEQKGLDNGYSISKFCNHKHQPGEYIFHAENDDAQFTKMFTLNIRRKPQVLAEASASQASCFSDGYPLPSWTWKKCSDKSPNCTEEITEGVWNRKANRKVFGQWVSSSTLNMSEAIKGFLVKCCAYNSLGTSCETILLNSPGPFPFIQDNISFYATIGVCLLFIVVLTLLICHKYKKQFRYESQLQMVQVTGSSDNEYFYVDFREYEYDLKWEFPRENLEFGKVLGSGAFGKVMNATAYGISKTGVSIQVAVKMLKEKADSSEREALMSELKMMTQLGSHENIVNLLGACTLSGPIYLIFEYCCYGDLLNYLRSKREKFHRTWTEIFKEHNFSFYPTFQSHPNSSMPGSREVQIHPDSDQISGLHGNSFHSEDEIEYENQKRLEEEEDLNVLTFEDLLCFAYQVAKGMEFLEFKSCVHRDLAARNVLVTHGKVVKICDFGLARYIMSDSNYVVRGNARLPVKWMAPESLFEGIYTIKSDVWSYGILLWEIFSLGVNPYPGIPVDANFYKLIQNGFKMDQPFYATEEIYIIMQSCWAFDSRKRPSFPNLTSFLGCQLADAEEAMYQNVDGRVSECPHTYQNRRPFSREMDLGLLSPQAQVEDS

Histamine H1 receptor = Histamine H1 receptor (Homo sapiens, UniProt P35367); experiment: Selectivity interaction (Receptor panel (Novartis) ) EUB0000164c HRH1
[16] = biological target: Muscarinic acetylcholine receptor M1 (Homo sapiens, UniProt P11229); experiment: Selectivity interaction (Receptor panel (Novartis) ) EUB0000164c CHRM1
[17] = biological target: Tyrosine-protein kinase BAZ1B (Homo sapiens) (UniProt Q9UIG0); experiment: Selectivity interaction (Bromodomain panel (DSF assay)) EUB0000164c BAZ1B
Sequence of Tyrosine-protein kinase BAZ1B (Homo sapiens) (Q9UIG0 whole entry): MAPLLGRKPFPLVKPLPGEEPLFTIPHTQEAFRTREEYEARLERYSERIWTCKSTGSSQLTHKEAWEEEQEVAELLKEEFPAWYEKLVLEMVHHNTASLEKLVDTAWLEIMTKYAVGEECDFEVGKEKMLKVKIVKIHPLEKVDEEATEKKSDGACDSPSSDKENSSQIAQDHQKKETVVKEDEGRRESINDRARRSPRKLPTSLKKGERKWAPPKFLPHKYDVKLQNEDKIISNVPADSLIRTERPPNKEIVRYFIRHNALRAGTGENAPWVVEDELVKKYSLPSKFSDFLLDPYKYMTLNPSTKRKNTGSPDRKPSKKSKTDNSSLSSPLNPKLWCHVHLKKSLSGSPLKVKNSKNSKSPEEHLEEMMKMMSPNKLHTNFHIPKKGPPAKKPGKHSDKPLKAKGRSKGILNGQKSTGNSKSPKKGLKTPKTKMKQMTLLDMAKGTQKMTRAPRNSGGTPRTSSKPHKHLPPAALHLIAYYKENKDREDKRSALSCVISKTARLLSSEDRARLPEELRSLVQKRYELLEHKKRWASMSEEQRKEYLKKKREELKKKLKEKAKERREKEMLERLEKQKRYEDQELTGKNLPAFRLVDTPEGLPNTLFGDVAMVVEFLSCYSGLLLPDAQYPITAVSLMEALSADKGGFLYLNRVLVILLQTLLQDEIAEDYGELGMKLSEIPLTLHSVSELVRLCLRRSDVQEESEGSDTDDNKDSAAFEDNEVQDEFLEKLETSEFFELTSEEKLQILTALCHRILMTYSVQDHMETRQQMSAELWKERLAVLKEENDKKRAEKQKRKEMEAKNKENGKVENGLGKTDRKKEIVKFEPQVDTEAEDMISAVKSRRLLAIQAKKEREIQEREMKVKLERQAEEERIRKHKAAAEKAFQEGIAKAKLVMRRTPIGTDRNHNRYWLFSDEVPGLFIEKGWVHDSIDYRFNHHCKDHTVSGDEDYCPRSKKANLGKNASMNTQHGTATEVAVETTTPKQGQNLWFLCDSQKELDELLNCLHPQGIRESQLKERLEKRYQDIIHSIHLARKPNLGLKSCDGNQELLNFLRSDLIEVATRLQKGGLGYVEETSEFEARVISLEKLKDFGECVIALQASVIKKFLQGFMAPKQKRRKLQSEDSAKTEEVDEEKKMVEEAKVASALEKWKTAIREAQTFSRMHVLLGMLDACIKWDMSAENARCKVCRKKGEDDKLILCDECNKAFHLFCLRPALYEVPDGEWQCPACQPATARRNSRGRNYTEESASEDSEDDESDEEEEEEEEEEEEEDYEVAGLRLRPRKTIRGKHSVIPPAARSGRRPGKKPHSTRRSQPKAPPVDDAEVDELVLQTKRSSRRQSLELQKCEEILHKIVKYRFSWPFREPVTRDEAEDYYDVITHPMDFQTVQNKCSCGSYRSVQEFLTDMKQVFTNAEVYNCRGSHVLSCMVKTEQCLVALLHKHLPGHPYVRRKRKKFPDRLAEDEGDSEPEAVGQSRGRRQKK

Question: `Cc1c(Nc2ccc(S(=O)(=O)N3CCN(C)CC3)cc2F)nc2ccc(-c3cnn(C4CC4)c3)cn2c1=O` was tested. Which IC50 [1] did it give?
Answer: 0.03 µM

Question: What about the IC50 (D(3) dopamine receptor) of the same compound?
Answer: 3.5 µM

Question: What about the dTm [2] of the same compound?
Answer: 1.95 K

Question: What about the IC50 (Adenosine receptor A3) of the same compound?
Answer: 4.9 µM

Question: What about the dTm [3] of the same compound?
Answer: 6.16 K

Question: What about the Kd [4] of the same compound?
Answer: 0.062 µM

Question: What about the dTm [5] of the same compound?
Answer: 2.48 K

Question: And the Kd [6]?
Answer: 0.066 µM

Question: What about the IC50 [7] of the same compound?
Answer: > 10 µM

Question: And the IC50 [8]?
Answer: > 10 µM

Question: And the dTm [9]?
Answer: 1.53 K

Question: And the IC50 [10]?
Answer: > 10 µM

Question: And the IC50 (Histamine H3 receptor)?
Answer: 4 µM

Question: What about the Kd [11] of the same compound?
Answer: 0.074 µM

Question: `CO[C@@H](C)c1c(Nc2ccc([C@@H](N(C)C(=O)C3CCS(=O)(=O)CC3)C(F)(F)F)cc2)cnc2cc(Cl)nn12` [NVS-MALT1-C] was tested. Which Ki [12] did it give?
Answer: > 10 µM

Question: And the % of control [13]?
Answer: 29%

Question: What about the % of control [14] of the same compound?
Answer: 41%

Question: What about the % of control [15] of the same compound?
Answer: 42%

Question: What does the source list for `CC(C)NC(=O)N1CC[C@H](NC2=Nc3cc(F)ccc3N(CC(F)F)c3ccc(Cl)cc32)C1`?
Answer: IC50 (Histamine H1 receptor): 13 µM; IC50 [16]: 13 µM; dTm [17]: 0.7 K
